Key:
Format in all cases: cell-based, HIV-1
HIV-IIIb IN T174I BT = assay: Antiviral assay in MT4 cells, HIV-IIIb IN T174I BT virus (from viral breakthrough); details: Human immunodeficiency virus 1, IIIB, MT4, 120 h, read-out: T174I BT EC50, MT4 cells, HIV-IIIb IN T174I BT (viral breakthrough), 5 days, CellTiter-Glo
Method: (§1) Antiviral Assay in MT4 Cells
(§2) For the antiviral assay, 0.4 μL of 189X test concentration of 3-fold serially diluted compound in DMSO was added to 40 μL of cell growth medium (RPMI 1640, 10% FBS, 1% Penicillin-Streptomycin, 1% L-Glutamine, 1% HEPES) in each well of 384-well plate (10 concentrations) in quadruplicate.
(§3) 1 mL Aliquots of MT4 cells were pre-infected for 3 hours at 37° C. with 25 μL of cell growth medium (mock-infected) or a fresh 1:250 dilution of an HIV-IIIb (wildtype, IN T174I BT, or IN T174I DE) concentrated ABI stock (0.004 m.o.i.). IN T174I BT virus was derived from viral breakthrough (BT) assay as described in Mulato, A.; Hansen, D.; Thielen, A.; Porter, D.; Stepan, G.; White, K.; Daeumer, M.; Cihlar, T.; Yant, S. R. AIDS Research and Human Retrovirues, July 2016, ahead of print. doi:10.1089/aid.2016.0071. IN T174I DE virus was derived from serial passaging with dose escalation (DE) of test compound. Infected and uninfected cells were diluted in cell growth media and 35 μL (2000 cells) was added to each well of the assay plates.
(§4) Assay plates were then maintained in a humidified, 5% CO2 incubator at 37° C. After 5 days of incubation, 25 μl of 2× concentrated CellTiter-Glo™ Reagent (catalog # G7573, Promega Biosciences, Inc., Madison, Wis.) was added to each well of the assay plate. Cell lysis was carried out by incubating at room temperature for 10 minutes and then chemiluminescence was read using an Envision plate reader (PerkinElmer). EC50 values were calculated as the compound concentration that caused a 50% […] in luminescence signal, a measure of HIV-1 replication.

HIV-IIIb IN T174I DE = assay: Antiviral assay in MT4 cells, HIV-IIIb IN T174I DE virus (from dose escalation passaging); details: Human immunodeficiency virus 1, IIIB, MT4, 120 h, read-out: T174I DE EC50, MT4 cells, HIV-IIIb IN T174I DE (dose escalation), 5 days, CellTiter-Glo
Method: as §1, §2, §3, §4

HIV-IIIb (wildtype) = assay: Antiviral assay in MT4 cells, HIV-IIIb wildtype; details: Human immunodeficiency virus 1, IIIB, MT4, 120 h, read-out: WT EC50
Method: as §1, §2, §3, §4

Row | SMILES | EC50 (HIV-IIIb IN T174I BT) [nM] | EC50 (HIV-IIIb IN T174I DE) [nM] | EC50 (HIV-IIIb (wildtype)) [nM]
1 | Cc1cc2nc(-c3cnc4c(c3)c(N3CCN(C)CC3)cn4C)sc2c(-c2ccc(Cl)cc2)c1[C@H](OC(C)(C)C)C(=O)O [Compound 107, (S)-2-(tert-butoxy)-2-(7-(4-chlorophenyl)-5-methyl-2-(1-methyl-3-(4-methylpiperazin-1-yl)-1H-pyrrolo[2,3-b]pyridin-5-yl)benzo[d]thiazol-6-yl)acetic acid] | 1110 | 2360 | 23
2 | COC(=O)N1CC(N2CCC(c3nn(C)c4ccc(-c5nc6cc(C)c([C@H](OC(C)(C)C)C(=O)O)c(-c7ccc(Cl)cc7)c6s5)nc34)CC2)C1 [Compound 167, (S)-2-(tert-butoxy)-2-(7-(4-chloro-phenyl)-2-(3-(1-(1-(methoxycarbonyl)azetidin-3-yl)piperidin-4-yl)-1-methyl-1H-pyrazolo[4,3-b]pyridin-5-yl)-5-methylbenzo[d]thiazol-6-yl) acetic acid] | 57 | 138 | 3
3 | Cc1cc2nc(-c3ccc4c(c3)c(N3CCC3=O)nn4C)sc2c(-c2ccc(Cl)cc2)c1[C@H](OC(C)(C)C)C(=O)O [Compound 3, (S)-2-(tert-butoxy)-2-(7-(4-chlorophenyl)-5-methyl-2-(1-methyl-3-(2-oxoazetidin-1-yl)-1H-indazol-5-yl)benzo[d]thiazol-6-yl)acetic Acid] | 5710 | 5710 | 43
4 | CCn1nc(C2CCN(C3CN(C(=O)OC)C3)CC2)c2cc(-c3nc4cc(C)c([C@H](OC(C)(C)C)C(=O)O)c(-c5ccc(Cl)cc5)c4s3)ccc21 [Compound 48, (S)-2-(tert-butoxy)-2-(7-(4-chlorophenyl)-2-(1-ethyl-3-(1-(1-(methoxycarbonyl)azetidin-3-yl)piperidin-4-yl)-1H-indazol-5-yl)-5-methylbenzo[d]thiazol-6-yl)acetic acid] | 70 | 165 | 8
5 | Cc1cc2nc(-c3cnc4c(n3)c(C3CCN(C5COC5)CC3)cn4C)sc2c(-c2ccc(Cl)cc2)c1[C@H](OC(C)(C)C)C(=O)O [Compound 16, (S)-2-(tert-butoxy)-2-(7-(4-chlorophenyl)-5-methyl-2-(5-methyl-7-(1-(oxetan-3-yl)piperidin-4-yl)-5H-pyrrolo[2,3-b]pyrazin-2-yl)benzo[d]thiazol-6-yl)acetic Acid] | 104 | 603 | 2
6 | COC(=O)N1CC[C@@H](N2CCC(c3cn(C)c4ncc(-c5nc6cc(C)c([C@H](OC(C)(C)C)C(=O)O)c(-c7ccc(Cl)cc7)c6s5)cc34)CC2)C1 [Compound 201, (S)-2-(tert-butoxy)-2-(7-(4-chloro-phenyl)-2-(3-(1-((R)-1-(methoxy-carbonyl)pyrrolidin-3-yl)piperidin-4-yl)-1-methyl-1H-pyrrolo[2,3-b]pyridin-5-yl)-5-methylbenzo[d]thiazol-6-yl) acetic acid] | 92 | 530 | 7
7 | Cc1cc2nc(-c3ccc4c(c3)c(C3CN(C(C)(C)C)C3)nn4C)sc2c(-c2ccc(Cl)cc2)c1[C@H](OC1CC1)C(=O)O [Compound 60, (S)-2-(2-(3-(1-(tert-butyl)azetidin-3-yl)-1-methyl-1H-indazol-5-yl)-7-(4-chlorophenyl)-5-methylbenzo[d]thiazol-6-yl)-2-cyclopropoxyacetic acid] | 477 | 692 | 31
8 | CCn1nc(C2CCN(C3COC3)CC2)c2nc(-c3nc4cc(C)c([C@H](OC(C)(C)C)C(=O)O)c(-c5ccc(Cl)cc5)c4s3)ccc21 [Compound 177, (S)-2-(tert-butoxy)-2-(7-(4-chloro-phenyl)-2-(1-ethyl-3-(1-(oxetan-3-yl)piperidin-4-yl)-1H-pyrazolo[4,3-b]pyridin-5-yl)-5-methylbenzo[d]thiazol-6-yl) acetic acid] | 47 | 185 | 3
